Measured values taken from US20180110754A1, “CENICRIVIROC FOR THE TREATMENT OF FIBROSIS” (Tobira Therapeutics, Inc., priority 2015, published 2018).
Like-named read-outs stand apart in the source and are kept apart here.

How the values were obtained:
[1] = for SAE: Suicidal ideation, n subjects: through Week 48
Text: Subjects with a history of HIV-2, hepatitis B and/or C, cirrhosis of the liver or any known active or chronic active liver disease were excluded from the study.
Most AEs were mild or moderate (Grade 1 or Grade 2). […] None of the Grade ≥3 AEs (preferred terms) were reported in more than 1 subject.

[2] = Study 202: treatment-emergent laboratory abnormalities (DAIDS grades; CPK, ALT, AST, bilirubin); assay type: in vivo; conditions: All CVC (N = 115), EFV (N = 28)
Text: The number of subjects with graded treatment-emergent laboratory abnormalities in selected liver parameters of interest is shown in Table 34. No Grade 4 ALT or AST elevations were observed. Except for one Grade 3 AST elevation, all ALT and AST elevations were Grade 1 or Grade 2. […] All abnormalities in bilirubin were Grade 1 or Grade 2. […]

CCCCOCCOc1ccc(-c2ccc3c(c2)/C=C(/C(=O)Nc2ccc([S@@+]([O-])Cc4cncn4CCC)cc2)CCCN3CC(C)C)cc1 [CVC, (S)-8-[4-(2-Butoxyethoxy)phenyl]-1-isobutyl-N-(4-{[(1-propyl-1H-imidazol-5-yl)methyl]sulfinyl}phenyl)-1,2,3,4-tetrahydro-1-benzazocine-5-carboxamide]
106: Any graded (Grade 1-4) treatment-emergent laboratory abnormality, n subjects [2]
0 n: Deaths ([1]; All CVC (N = 115)) | Deaths ([1]; CVC 100 mg (N = 58)) | Deaths ([1]; CVC 200 mg (N = 57)) | Subjects with AEs, worst grade severity Grade 4 ([1]; human, in vivo, 48 weeks)
3: Any Grade 3 AE, n subjects ([1]; CVC 200 mg (N = 57)) | AE Depression, n subjects ([1]; human, in vivo, 48 weeks)
7: AE Insomnia, n subjects ([1]; human, in vivo, 48 weeks) | AE Lymphadenopathy, n subjects ([1]; human, in vivo, 48 weeks)
51: Any AE, n subjects ([1]; CVC 100 mg (N = 58))
16: AE Headache, n subjects ([1]; human, in vivo, 48 weeks)
18: AE Nausea, n subjects ([1]; human, in vivo, 48 weeks) | AE Upper respiratory tract infection, n subjects ([1]; human, in vivo, 48 weeks)
14: AE Fatigue, n subjects ([1]; human, in vivo, 48 weeks) | AE Rash, n subjects ([1]; human, in vivo, 48 weeks) | AST, worst Grade 1, n subjects ([2]; through Week 48)
99: Any AE, n subjects ([1]; human, in vivo, 48 weeks)
17: AE Diarrhoea, n subjects ([1]; human, in vivo, 48 weeks)
13: Laboratory abnormality, worst Grade 3 (Any Grade 3 abnormality), n subjects [2]
2: Any Grade 3 AE, n subjects ([1]; CVC 100 mg (N = 58)) | Any SAE, n subjects ([1]; human, in vivo, 48 weeks) | SAE: Infections and infestations, n subjects ([1]; human, in vivo, 48 weeks)
0: SAE: Suicidal ideation, n subjects ([1]; All CVC (N = 115), EFV (N = 28)) | Grade 3 or 4 AE: Suicidal ideation, n subjects ([1]; All CVC (N = 115), EFV (N = 28; Grade 4 event)) | Any Grade 4 AE, n subjects ([1]; CVC 100 mg (N = 58)) | Grade 3 or 4 AE: Blindness unilateral, n subjects ([1]; CVC 100 mg (N = 58)) | Grade 3 or 4 AE: Blood creatine phosphokinase increased, n subjects ([1]; CVC 100 mg (N = 58)) | Grade 3 or 4 AE: Corneal infection, n subjects ([1]; CVC 100 mg (N = 58)) | Grade 3 or 4 AE: Suicidal ideation, n subjects ([1]; CVC 100 mg (N = 58)) | SAE: Suicidal ideation, n subjects ([1]; CVC 100 mg (N = 58)) | Any Grade 4 AE, n subjects ([1]; CVC 200 mg (N = 57)) | Grade 3 or 4 AE: Abdominal pain, n subjects ([1]; CVC 200 mg (N = 57)) | Grade 3 or 4 AE: Cardiac disorders, n subjects ([1]; CVC 200 mg (N = 57)) | Grade 3 or 4 AE: Suicidal ideation, n subjects ([1]; CVC 200 mg (N = 57)) | SAE: Suicidal ideation, n subjects ([1]; CVC 200 mg (N = 57)) | Grade 3 or 4 AE: Depression, n subjects ([1]; human, in vivo, 48 week) | Grade 3 or 4 AE: Ear and labyrinth disorders, n subjects ([1]; human, in vivo, 48 week) | Grade 3 or 4 AE: Weight decreased, n subjects ([1]; human, in vivo, 48 week) | AE leading to discontinuation: Abnormal dreams, n subjects ([1]; human, in vivo, 48 weeks) | AE leading to discontinuation: Anxiety, n subjects ([1]; human, in vivo, 48 weeks) | AE leading to discontinuation: Dermatitis allergic, n subjects ([1]; human, in vivo, 48 weeks) | AE leading to discontinuation: Disturbance in attention, n subjects ([1]; human, in vivo, 48 weeks) | AE leading to discontinuation: Dizziness, n subjects ([1]; human, in vivo, 48 weeks) | AE leading to discontinuation: Ear and labyrinth disorders, n subjects ([1]; human, in vivo, 48 weeks) | AE leading to discontinuation: Eye disorders, n subjects ([1]; human, in vivo, 48 weeks) | AE leading to discontinuation: Gastrointestinal disorders, n subjects ([1]; human, in vivo, 48 weeks) | AE leading to discontinuation: Hypoaesthesia, n subjects ([1]; human, in vivo, 48 weeks) | AE leading to discontinuation: Insomnia, n subjects ([1]; human, in vivo, 48 weeks) | AE leading to discontinuation: Musculoskeletal and connective tissue disorders, n subjects ([1]; human, in vivo, 48 weeks) | AE leading to discontinuation: Musculoskeletal discomfort, n subjects ([1]; human, in vivo, 48 weeks) | AE leading to discontinuation: Nausea, n subjects ([1]; human, in vivo, 48 weeks) | AE leading to discontinuation: Nervous system disorders, n subjects ([1]; human, in vivo, 48 weeks) | AE leading to discontinuation: Photophobia, n subjects ([1]; human, in vivo, 48 weeks) | AE leading to discontinuation: Rash, n subjects ([1]; human, in vivo, 48 weeks) | AE leading to discontinuation: Skin and subcutaneous tissue disorders, n subjects ([1]; human, in vivo, 48 weeks) | AE leading to discontinuation: Tachyphrenia, n subjects ([1]; human, in vivo, 48 weeks) | AE leading to discontinuation: Tinnitus, n subjects ([1]; human, in vivo, 48 weeks) | Any Grade 4 AE, n subjects ([1]; human, in vivo, 48 weeks) | Grade 3 or 4 AE: Dermatitis allergic, n subjects ([1]; human, in vivo, 48 weeks) | Grade 3 or 4 AE: Skin and subcutaneous tissue disorders, n subjects ([1]; human, in vivo, 48 weeks) | Grade 3 or 4 AE: Tinnitus, n subjects ([1]; human, in vivo, 48 weeks) | SAE: Depression, n subjects ([1]; human, in vivo, 48 weeks) | SAE: Psychiatric disorders, n subjects ([1]; human, in vivo, 48 weeks) | ALT, worst Grade 3, n subjects ([2]; through Week 48) | ALT, worst Grade 4, n subjects ([2]; through Week 48)
50: Laboratory abnormality, worst Grade 2, n subjects [2]
5: Any Grade 3 AE, n subjects ([1]; human, in vivo, 48 weeks) | ALT, worst Grade 2, n subjects ([2]; through Week 48)
9: AE Abnormal dreams, n subjects ([1]; human, in vivo, 48 weeks)
48: Any AE, n subjects ([1]; CVC 200 mg (N = 57))
1: Grade 3 or 4 AE: Abdominal pain, n subjects ([1]; CVC 100 mg (N = 58)) | Grade 3 or 4 AE: Cardiac disorders, n subjects ([1]; CVC 100 mg (N = 58)) | Grade 3 or 4 AE: Blindness unilateral, n subjects ([1]; CVC 200 mg (N = 57)) | Grade 3 or 4 AE: Blood creatine phosphokinase increased, n subjects ([1]; CVC 200 mg (N = 57)) | Grade 3 or 4 AE: Corneal infection, n subjects ([1]; CVC 200 mg (N = 57)) | Grade 3 or 4 AE: Blood creatine phosphokinase increased, n subjects ([1]; human, in vivo, 48 week) | Grade 3 or 4 AE: Cardiac disorders, n subjects ([1]; human, in vivo, 48 week) | Grade 3 or 4 AE: Investigations, n subjects ([1]; human, in vivo, 48 week) | Grade 3 or 4 AE: Palpitations, n subjects ([1]; human, in vivo, 48 week) | Grade 3 or 4 AE: Psychiatric disorders, n subjects ([1]; human, in vivo, 48 week) | Grade 3 or 4 AE: Stress, n subjects ([1]; human, in vivo, 48 week) | AE Syphilis, n subjects ([1]; human, in vivo, 48 weeks) | AE leading to discontinuation: Aggression, n subjects ([1]; human, in vivo, 48 weeks) | AE leading to discontinuation: Depression, n subjects ([1]; human, in vivo, 48 weeks) | AE leading to discontinuation: General disorders and administration site conditions, n subjects ([1]; human, in vivo, 48 weeks) | AE leading to discontinuation: Malaise, n subjects ([1]; human, in vivo, 48 weeks) | AE leading to discontinuation: Psychiatric disorders, n subjects ([1]; human, in vivo, 48 weeks) | AE leading to discontinuation: Thinking abnormal, n subjects ([1]; human, in vivo, 48 weeks) | Any AE leading to discontinuation of study drug, n subjects ([1]; human, in vivo, 48 weeks) | Grade 3 or 4 AE: Abdominal pain, n subjects ([1]; human, in vivo, 48 weeks) | Grade 3 or 4 AE: Blindness unilateral, n subjects ([1]; human, in vivo, 48 weeks) | Grade 3 or 4 AE: Corneal infection, n subjects ([1]; human, in vivo, 48 weeks) | Grade 3 or 4 AE: Eye disorders, n subjects ([1]; human, in vivo, 48 weeks) | Grade 3 or 4 AE: Gastrointestinal disorders, n subjects ([1]; human, in vivo, 48 weeks) | Grade 3 or 4 AE: General disorders and administration site conditions, n subjects ([1]; human, in vivo, 48 weeks) | Grade 3 or 4 AE: Infections and infestations, n subjects ([1]; human, in vivo, 48 weeks) | Grade 3 or 4 AE: Pyrexia, n subjects ([1]; human, in vivo, 48 weeks) | SAE: Blindness unilateral, n subjects ([1]; human, in vivo, 48 weeks) | SAE: Corneal infection, n subjects ([1]; human, in vivo, 48 weeks) | SAE: Eye disorders, n subjects ([1]; human, in vivo, 48 weeks) | SAE: Gastroenteritis, n subjects ([1]; human, in vivo, 48 weeks)
4%: Subjects who experienced a Grade ≥3 AE ([1]; human, in vivo, 48 weeks)
11: AE Dizziness, n subjects ([1]; human, in vivo, 48 weeks)
37: Laboratory abnormality, worst Grade 1, n subjects [2]
6: Laboratory abnormality, worst Grade 4 (Any Grade 4 abnormality), n subjects [2]
10: AE Nasopharyngitis, n subjects ([1]; human, in vivo, 48 weeks) | ALT, worst Grade 1, n subjects ([2]; through Week 48)
